Literature values in patent US20250341511A1, “MASS-TAG LABELING OF THE CELLULAR SECRETOME” (The Governing Council of the University of Toronto, priority 2022, published 2025).

Details: relative to required assay concentration

C[Te]CCCOC(=O)NCCNC(=O)Cn1ccnc1[N+](=O)[O-] [Telox]
metabolic LD50: close to the required assay concentration
